According to US6692950B1, “Clavulanic acid dehydrogenase, preparation and use for the production of clavulanic acid” (SmithKline Beecham plc, priority 1993, dated 2004):
Entries after “also recorded” stand apart in the source; their conditions may differ. Where two headings read alike, the source gives them in different places.

Legend:
[1] = target: Klebsiella E70 β-lactamase; experiment: β-lactamase inhibition by automated chromogenic substrate assay of Reading and Farmer; type: biochemical
Procedure: β-lactamase inhibition by (III): A solution of III was tested as a β-lactamase inhibitor by the automated chromogenic substrate assay of C. Reading and T. Farmeragainst Klebsiella E70 β-lactamase. Taking the yield of (III) from the hydrogenation reaction as 35% gave an I^50 with pre-incubation of 0.01 μg/ml and without pre-incubation of enzyme and inhibitor of 1μg/ml.

[2] = Spontaneous decomposition in solution (h.p.l.c. / nmr); type: physicochemical; conditions: for % of the original remaining: 0.2 M aqueous sodium phosphate pH 6.85, room temperature, h.p.l.c.
Procedure: This instability prevented full characterisation of the acid (I), so it was converted with diazomethane to its methyl ester (IV) in an overall yield of 16% from the benzyl ester (II) (A.G. Brown et al, J. Chem. Soc. Perkin Trans. I, 1984, 635). The spectral data obtained for the methyl ester (IV) were indistinguishable from those obtained by A. G. Brown et al 1984.
Benzyl 3-oxoethylidene-7-oxo-4-oxa-1-azabicyclo[3.2.0]heptane-2-carboxylate (II) (50 mg, 0. 17m mol) was dissolved in tetrahydrofuran (5 ml) and 0.2 M sodium phosphate adjusted to pH 6.85 (5 ml), and hydrogenated at ambient temperature and pressure for ten minutes with 10% palladium on carbon (40 mg). The reaction mixture was rapidly filtered and evaporated to dryness while the temperature was maintained below 10° C. The residue was immediately redissolved in D2O to give a solution of the title compound (III). δH(250 MHz, D20) inter alia E isomer 3.25 (1H, d, J 17.4 Hz, 6β-H), 3.65 (1H, dd, J 17.4 and 2.9 Hz, 6 α-H), 5.73 (1H, d, J 1.2 Hz, 2-H), 5.79 (1H, dd, J 8.3 and 1 Hz, 8-H), 5.94 (1H, d, 2.7 Hz, 5-H), 9.55 (1H, d, J 8.3 Hz, 9-H), Z isomer 3.29 (1H, d, J 17.3 Hz, 6β-H), 3.65 (1H, dd, J 17.4 and 2.9 Hz, 6 α-H), 5.27 (1H, s, 2-H), 5.50 (1H, d, J 8.2 Hz, 8-H), 6.00 (1H, d, J2.7 Hz, 5-H), and 9.70 (1H, d, J 8.2 Hz, 9-H). The E and Z isomers were assigned on the relative positions of their 8-proton resonance (Gerald Brooks+Eric Huit J.Chem.Soc. Perkin Trans. I (1983) 2513) and were in the ratio E-Z (2:1). Material prepared by the above hydrogenation with water substituting for the phosphate solution and adjustment of the pH of the reaction mixture to 6.5 with 0.1 M NaOH gave (III) (Yield 35% from NaOH consumed), λmax. (H2O) 262 nm; vmax.(KBr) 3 400, 1 792 (br), and 1 640 cm^−1 (br), […]; thin layer chromatography on silica 60 eluted with butan- 1-ol-ethanol-water (4:1:1) and visualised with Schiffs reagent gave a blue zone (Rf:0.52). Addition of a known weight of fumaric acid to the crude product solution followed by evaporation and nmr analysis indicated a yield of 20% by comparison of the intensity of the fumarate protons with the intensity of the aldehydic proton of (M). When this solution was allowed to stand at room temperature for 3.5 hours, (III) was seen to have decomposed to a yield of 3.2%.

[3] = tested on: broken cell suspension (BCS) of S.clavuligerus SC2; experiment: Enzymic reduction of (III) to clavulanic acid by broken cell suspension, KaG bioassay; type: biochemical, Streptomyces clavuligerus
Description: Compound (I) was reduced to clavulanic acid by NADPH in the presence of a broken cell suspension of S. clavuligerus SC2 (Table 1). (SC2 is a reisolate of ATCC 27064). The clavulanic acid produced was detected by KaG bioassay (AG. Brown et al J. Antibiot., 1976, 29, 668) and chromatographic tapes loaded with the reaction mixture, were compared with standards to confirm the presence of clavulanic acid. The reduction was complete before a sample could be removed from the reaction vessel, but appeared to give clavulanic acid in only 14% yield. However, should the enzyme be capable of reducing only the Z isomer of (I) (the geometry of clavulanic acid), the yield is 42%.
Enzymic reduction of (III) to clavulanic acid:- solution of (III) (0.23 mg, 1 μmol, estimated by titration of acid (I)) in water ([…] 1μmol) was added to washed 48 hour S.clavuligerus SC2 cells which had been sonicated (EP 0213 914 example 20) (0.5 ml). The suspension was treated with 10 mM NADPH (0.1 ml, 1 umol), made up to one milliliter with 50 mM MOPS buffer at pH 7.0 and incubated in stoppered tubes at 26° C. Samples (0.2 ml) were removed, treated with methanol (0.2 ml) for 5 minutes, and centrifuged. The clear supernatants were made up to 1.6 ml with MOPS buffer and assayed on discs by the KaG method. Undiluted reaction mixture was applied to Whatman No. 1 chromatography tapes which were developed in either butan-1-ol-acetic acid-water (12:3:5) or butan-1-01-ethanol-water (7:1:2), dried, and visualised by application to a KaG bioassay plate. Standard clavulanic acid solutions were developed and visualised similarly.

[4] = tested on: broken cell suspension (BCS) of S.clavuligerus SC2; experiment: as above; type: biochemical, Streptomyces clavuligerus; remark: listed apart in the source
[5] = tested on: β-lactamase; experiment: β-lactamase inhibitory activity (method not specified); type: biochemical
[6] = Boiled BCS + (III) + NADPH 1 mM

SMILES: O=CC=C1OC2CC(=O)N2C1C(=O)[O-].[Na+] (stereo not shown) [(III), Sodium 3-Oxoethylidene-7-oxo-4-oxa-1-azabicyclo (3.2.0)heptane-2-carboxylate]
- I50 with pre-incubation ([1]; with pre-incubation of enzyme and inhibitor, yield of (III) from hydrogenation taken as 35%): 0.01 µg/mL
- I50 without pre-incubation ([1]; without pre-incubation of enzyme and inhibitor, yield of (III) taken as 35%): 1 µg/mL
- % of the original remaining ([2]; after 35 minutes): 85%
- % of the original remaining ([2]; after 53 minutes): 63%
- yield remaining after decomposition on standing (nmr vs fumaric acid) ([2]; room temperature for 3.5 hours, initial yield 20%): 3.2%
- time in which about half had decomposed ([2]; solution of the salt, room temperature, repeated h.p.l.c. analysis): one
- Clavulanic Acid at time 0 mins (KaG bioassy) ([3]; BCS + (III) + NADPH 1 mM): 28.8 µg/mL
- Clavulanic Acid at time 60 mins ([3]; BCS + (III) + NADPH 1 mM): 27.2 µg/mL
- Clavulanic Acid at time 0 mins (KaG bioassy) [3, 6]: 6.6 µg/mL
- Clavulanic Acid at time 60 mins [3, 6]: 6.6 µg/mL
- Clavulanic Acid at time 0 mins (KaG bioassy) ([4]; (III) + NADPH 1 mM, no BCS): 8.8 µg/mL
- Clavulanic Acid at time 60 mins ([4]; (III) + NADPH 1 mM, no BCS): 7.2 µg/mL
- Clavulanic Acid at time 0 mins (KaG bioassy) ([4]; BCS + (III) + NADH 1 mM): 6.2 µg/mL
- Clavulanic Acid at time 60 mins ([4]; BCS + (III) + NADH 1 mM): 6.6 µg/mL
- Clavulanic Acid at time 0 mins (KaG bioassy) ([4]; BCS + (III)): 8.0 µg/mL
- Clavulanic Acid at time 60 mins ([4]; BCS + (III)): 7.0 µg/mL

SMILES: O=CC=C1CN2C(=O)CC2O1 (stereo not shown) [(V), 3-oxoethylidene-7-oxo-4-oxa-1-azabicyclo [3.2.0] heptane]
- chemical and stereochemical stability ([2]; organic solution): chemically and stereochemically stable in organic solution

SMILES: O=CC=C1OC2CC(=O)N2C1C(=O)O (stereo not shown) [Compound (I), 3-oxoethylidene-7-oxo-4-oxa-1-azabicyclo-[3.2.0] heptane-2-carboxylic acid]
- rate of decomposition compared with I 111 broth supernatant ([2]; (I) chemically synthesised from 2R, 5R clavulanic acid): same rate of decomposition
- half-life ([2]; aqueous solution, read-out: half life in aqueous solution (converted)): ~30 min
- half-life ([2]; at 21° C., read-out: half-life): ~30 min
- β-lactamase inhibitory activity (in words) ([5]; chemically synthesised): shown to possess β-lactamase inhibitory activity; also recorded: Strong β-lactamase activity
- activity as a β-lactamase inhibitor relative to clavulanic acid ([5]; more active than clavulanic acid): approximately 100 times
